Like-named read-outs stand apart in the source and are kept apart here.
Assays:
Assay type in all cases: cell-based
[1] = test system: Septoria tritici; conditions: 7 days
[2] = test system: Alternaria solani; experiment: Microtest, early blight caused by Alternaria solani (ALTESO), Example 1; conditions: single compound, 7 days
[3] = test system: Pyricularia oryzae; conditions: PYRIOR, single compound, 7 days
[4] = test system: Botrytis cinerea
[5] = test system: Colletotrichum orbiculare; experiment: Microtiterplate test, anthracnose caused by Colletotrichum orbiculare (COLLLA), Example 1; conditions: single compound, 7 days
[6] = test system: Septoria tritici; experiment: Microtest, leaf blotch on wheat caused by Septoria tritici (SEPTTR), Example 2; conditions: single compound, 7 days

CCC(=O)Oc1c(OC)ccnc1C(=O)N[C@@H](C)C(=O)O[C@@H](C)[C@@H](C)c1ccccc1C [Compound II-1, [(1 S,2S)-1-methyl-2-(o-tolyl)propyl] (2S)-2-[(4-methoxy-3-propanoyloxy-pyridine-2-carbonyl)amino]propanoate]
Observed efficacy [1]: 15% | Observed efficacy ([2]; 1 ppm): 42% | Observed efficacy ([3]; 1 ppm): 10% | Observed efficacy [4]: 13% | Observed efficacy ([5]; 0.25 ppm): 0% | Observed efficacy ([5]; 1 ppm): 0%

CON(Cc1ccc(-c2noc(C(F)(F)F)n2)cc1)C(=O)C1CC1 [Compound II-2, N-methoxy-N-[[4-[5-(trifluoromethyl)-1,2,4-oxadiazol-3-yl]phenyl]methyl]cyclopropanecarboxamide]
Observed efficacy ([6]; 0.25 ppm): 9%

Cc1cccc(-n2nnn(C)c2=O)c1COc1ccn(-c2ccc(Cl)cc2)n1 [Methyltetraprol, metyltetraprole]
Observed efficacy ([6]; 0.004 ppm): 0% | Observed efficacy ([2]; 0.004 ppm): 12% | Observed efficacy ([2]; 0.016 ppm): 31% | Observed efficacy ([3]; 0.004 ppm): 3% | Observed efficacy ([3]; 0.016 ppm): 11% | Observed efficacy ([4]; 7 days): 52% | Observed efficacy ([5]; 0.063 ppm): 0%

— patent US20240389594A1 (priority 2020, published 2024)
